Reference: PubChem BioAssay (NCI)
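Step 1: Grow cells in 96-well plates. Step 2: Expose to compound for 48 hours at 5 concentrations. Step 3: Interpolate endpoints linearly; if unreached, use highest concentration. The concentration for full growth arrest is given as TGI.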

Tests used:
Assay in all cases: inhibition of tumour cell growth, NCI panel, 48 h
[1] = tested on: 786-0 renal
[2] = tested on: SK-MEL-5 melanoma
[3] = tested on: A549 NSCLC
[4] = tested on: SF-268 CNS
[5] = tested on: OVCAR-5 ovarian
[6] = tested on: OVCAR-8 ovarian
[7] = tested on: RXF 393 renal
[8] = tested on: TK-10 renal
[9] = tested on: CAKI-1 renal
[10] = tested on: SF-539 CNS
[11] = tested on: HOP-62 NSCLC
[12] = tested on: CCRF-CEM leukemia
[13] = tested on: COLO 205 colon
[14] = tested on: NCI-H522 lung
[15] = tested on: RPMI-8226 leukemia
[16] = tested on: UO-31 renal
[17] = tested on: UACC-257 melanoma
[18] = tested on: DU-145 prostate

| Structure (SMILES) | TGI [1] | TGI [2] | TGI [3] | TGI [4] | TGI [5] | TGI [6] | TGI [7] | TGI [8] | TGI [9] | TGI [10] | TGI [11] | TGI [12] | TGI [13] | TGI [14] | TGI [15] | TGI [16] | TGI [17] | TGI [18] |
| --- | --- | --- | --- | --- | --- | --- | --- | --- | --- | --- | --- | --- | --- | --- | --- | --- | --- | --- |
| COc1ccc(OC)c(/C=C2\CCc3ccccc3C2=O)c1 | 13.8 µM | 12.4 µM | 65.6 µM | 22.2 µM | 25.5 µM | 20.2 µM | 6.07 µM | 30.3 µM | > 100 µM | 9.95 µM | 10.8 µM | 14.8 µM | 13.5 µM | 4.25 µM | 19.6 µM |  |  |  |
| C=CCCCN1CCCC(C)C1=S (configuration not stated) | > 100 µM | > 100 µM | > 100 µM | > 100 µM | > 100 µM | > 100 µM | > 100 µM | > 100 µM |  | > 100 µM | > 100 µM | > 100 µM | > 100 µM | > 100 µM | > 100 µM | > 100 µM | > 100 µM |  |
| O=C(CC1C(=O)Nc2ccccc2S1(=O)=O)Nc1ccc(Cl)cc1 (configuration not stated) | 38.7 µM | 59.1 µM | > 100 µM | 28.6 µM | > 100 µM | > 100 µM | 38.5 µM | 54.5 µM | 43.5 µM | 29.7 µM |  | 77.7 µM |  | 36.4 µM | 29.6 µM | 66.9 µM | 91.6 µM |  |
| S=C(N/N=C/c1ccccn1)N1CC2CCC(CC2)C1 | 0.242 µM |  | 14.2 µM | 14.8 µM | 18 µM | 0.252 µM | 3.19 µM | 1.82 µM | 1.82 µM | 0.287 µM | 0.461 µM |  |  | 3.64 µM |  | 2.24 µM | < 0.039 µM | 12 µM |
| C(=C\C(Sc1ccccc1)c1ccccc1)/NNC1=NC(c2ccccc2)C(c2ccccc2)=NN1 (configuration not stated) | > 100 µM | > 100 µM | > 100 µM | > 100 µM | > 100 µM | > 100 µM |  | > 100 µM | > 100 µM | > 100 µM | > 100 µM | 49.5 µM | > 100 µM | > 100 µM | 45.5 µM | > 100 µM | > 100 µM |  |
| COc1c(I)c(OC)c2c(c1I)O[C@@H]1OCC[C@H]21 | > 100 µM | 27.2 µM | > 100 µM |  | > 100 µM | > 100 µM | 72.4 µM | > 100 µM | 46.1 µM | > 100 µM | > 100 µM | > 100 µM | 57.8 µM |  | > 100 µM | 66.3 µM | 67.1 µM |  |
| COC(=O)CC(C(C(=O)OC)C(=O)OC)N1C(=O)OC(c2ccccc2)C1c1ccccc1 (configuration not stated) | > 100 µM | > 100 µM | > 100 µM | > 100 µM | > 100 µM | > 100 µM | > 100 µM | > 100 µM | 39 µM | > 100 µM | > 100 µM | > 100 µM | > 100 µM | > 100 µM | > 100 µM | > 100 µM | > 100 µM |  |
| CC1(C)c2ccccc2N2O[C@@H]3C(=O)N(c4ccccc4)C(=O)[C@@H]3C21c1ccccc1 (some centres not stated) | > 100 µM | > 100 µM | > 100 µM | > 100 µM |  | > 100 µM | > 100 µM | > 100 µM | > 100 µM | > 100 µM | > 100 µM | > 100 µM | > 100 µM | > 100 µM | > 100 µM | > 100 µM | > 100 µM |  |
| CCOC(=O)CSC1NC(C(=O)OC)CC1OC (configuration not stated) | > 100 µM | > 100 µM | > 100 µM | > 100 µM | > 100 µM | > 100 µM | > 100 µM | > 100 µM | > 100 µM |  | > 100 µM | > 100 µM | > 100 µM | > 100 µM | > 100 µM | > 100 µM | > 100 µM | > 100 µM |
| CC(=O)c1ccccc1NC(=O)C(=O)C(C(=O)c1ccccc1-c1ccccc1)C1OC(=O)c2ccccc21 (configuration not stated) | 34.3 µM | 33.8 µM | 80.4 µM |  | 64.9 µM | 47.9 µM | 25 µM | 32 µM | > 100 µM | 37.2 µM | 44.9 µM | > 100 µM | 46.1 µM | 31 µM | > 100 µM | 32.8 µM | 32.3 µM |  |
| CC(=O)NNc1nc(C)c(C(=O)NNC(=O)C(=O)Nc2c([N+](=O)[O-])ccc(C)c2C)s1 | > 100 µM | > 100 µM | > 100 µM | > 100 µM | > 100 µM | > 100 µM |  | > 100 µM | > 100 µM | > 100 µM | > 100 µM | > 100 µM | > 100 µM | > 100 µM | > 100 µM | > 100 µM | > 100 µM |  |
| N#CC(C#N)=c1c2ccccc2c(=C(C#N)C#N)c2ccccc12 | 30.6 µM | 31 µM | > 100 µM | 77.5 µM | 43.3 µM | 42.7 µM |  |  | 28.6 µM |  | 40.5 µM | 50.9 µM | 37.5 µM |  | > 100 µM |  | 51.2 µM |  |
| CSc1ccc(NC(=O)C2c3[nH]c4ccccc4c3C3CCC(C(C)(C)C)CC3C2C(=O)O)cc1 (configuration not stated) | 32.2 µM | 66 µM | 30.9 µM | 47 µM |  | 28.8 µM | 49.5 µM |  |  | 37.7 µM | 32.1 µM | 25.8 µM | 32 µM | 37.4 µM | 58.6 µM | 61.6 µM | > 100 µM |  |
| CC1(C)C(=O)C(C)(C)C1=NNC(N)=S | > 100 µM | > 100 µM | > 100 µM | > 100 µM | > 100 µM | > 100 µM | > 100 µM | > 100 µM | > 100 µM | > 100 µM | > 100 µM |  | > 100 µM | > 100 µM | > 100 µM | > 100 µM | > 100 µM |  |
| N#Cc1ccc(Oc2ccccc2)cc1C#N | > 100 µM | > 100 µM | > 100 µM | > 100 µM | > 100 µM | > 100 µM | > 100 µM | > 100 µM | > 100 µM | > 100 µM | > 100 µM | 56.9 µM | 68.6 µM | 57.2 µM | > 100 µM | > 100 µM | > 100 µM |  |
